Experimental data: patent US9884126B2, “Anti-wall teichoic antibodies and conjugates” (priority 2013, dated 2018)
Values after ≈ are worked out from the molar mass of the structure shown. “Also recorded” adds a separate entry of the source.

Key:
[1] = system: MRSA (NRS384 strain of USA300); assay: MIC determination / killing of intracellular bacteria in mouse peritoneal macrophages; type: cell-based, Staphylococcus aureus; conditions: for killing of intracellular MRSA sequestered inside macrophages: doses including clinically achieveable serum levels
[2] = system: USA300 strain of MRSA (NRS384); assay: In vitro macrophage assay (intracellular killing of opsonized MRSA); type: cell-based, Staphylococcus aureus; conditions: for Macrophage assay activity: in vitro macrophage assay (Example 18), grades 0, weak, 1+ not defined; for CFU/well after treatment: 100 μg/mL, reduced from 10,000 CFU/well
Description: (§1) Peritoneal macrophages were isolated from the peritoneum of 6-8 week old Balb/c mice (Charles River Laboratories, Hollister, Calif.). To increase the yield of macrophages, mice were pre-treated by intraperitoneal injection with 1 mL of thioglycolate media (Becton Dickinson). The thioglycolate media was prepared at a concentration of 4% in water, sterilized by autoclaving, and aged for 20 days to 6 months prior to use. Peritoneal macrophages were harvested 4 days post treatment with thioglycolate by washing the peritoneal cavity with cold phosphate buffered saline. Macrophages were plated in Dulbecco's Modified Eagle Medium (DMEM) supplemented with 10% Fetal Calf Serum, and 10 mM HEPES, without antibiotics, at a density of 4×10^5 cells/well in 24 well culture dishes. Macrophages were cultured over night to permit adherence to the plate. This assay was also utilized to test intracellular killing in non-phagocytic cell types. MG63 (CRL-1427) and A549 (CCL185) cell lines were obtained from ATCC and maintained in RPMI 1640 tissue culture media supplemented with 10 mM Hepes and 10% Fetal Calf Serum (RPMI-10). HUVEC cells were obtained from Lonza and maintained in EGM Endothelial Cell Complete Media (Lonza, Walkersville, Md.).

[3] = system: MRSA (USA300 strain); assay: Intravenous infection model in A/J mice; type: in vivo
[4] = system: MRSA (USA300); assay: Peritonitis model (intraperitoneal infection); type: in vivo, A/J mice; conditions: 50 mg/Kg thirty minutes after infection; 2 days
Text: An in vivo peritonitis model in mice was established to test the efficacy of AAC. In this model, mice are infected by intraperitoneal injection (I.P.) of MRSA and the bacterial load is monitored 2 days after infection in the peritoneal fluid and kidney. Bacteria harvested from the peritoneum could be found either as free floating extracellular bacteria or internalized inside peritoneal cells—primarily neutrophils and macrophages—that are recruited to the site of the infection.
Intraperitoneal infection model in A/J mice. Mice were infected with 5×10^7 CFU of MRSA by intraperitoneal injection and treated with 50 mg/Kg of S4497 antibody alone or with 50 mg/Kg of the S4497-pipBOR AAC 102 by intraperitoneal injection (protocol 11-2032A). Mice were sacrificed 2 days post infection and the total bacterial load was assessed in the peritoneal supernatant (Extracellular bacteria), peritoneal cells (Intracellular bacteria) or in the kidney.
A/J mice were infected with USA300 and administered 50 mg/Kg of either S4497 antibody or S4497-pipBOR AAC 102 thirty minutes after infection. After 2 days, the mice were sacrificed and bacterial loads were monitored in the peritoneal wash and the kidney. To distinguish between extracellular and intracellular bacteria, the peritoneal wash was centrifuged gently to separate the supernatant, containing extracellular bacteria, and the peritoneal cells. […]

[5] = system: MRSA; assay: Cathepsin release / growth inhibition assay; type: cell-based, S. aureus; conditions: overnight culture, up to 10 μg/mL of AAC
Description: An AAC comprising antibody rF1, which binds to a family of cell wall associated proteins was conjugated to a rifamycin derivative. S. aureus (Newman strain) was treated with various doses of the rF1-AAC or with equivalent doses of either antibody alone, rifampicin alone or a mixture of antibody and free rifampicin to permit antibody binding to the bacteria (opsonization) and after 1 hour incubation the opsonized bacteria were fed to macrophages (FIG. 7A).
See: page 863 of Dubowchik et al (2002) Bioconj. Chem. 13:855-869, incorporated by reference for the purposes of this assay. Cathepsin B (from bovine spleen, SIGMA C7800) was added at 10 μg/mL and the samples were incubated for 1 hour at 37° C. As a control, AAC were incubated in buffer alone. The reaction was stopped by addition of 10 volumes of bacterial growth media, Tryptic Soy Broth pH 7.4 (TSB). To estimate the total release of active antibiotic, serial dilutions of the reaction mixture were made in quadruplicate in TSB in 96 well plates and the USA300 strain of S. aureus was added to each well at a final density of 2×10^3 CFU/mL. The cultures were incubated over night at […] with shaking and bacterial growth was measured by reading absorbance at 630 nm using a plate reader.

[6] = system: MRSA (USA300 strain); assay: Intracellular killing in macrophages and non-phagocytic cell types (MG63, A549, HUVEC); type: cell-based, Staphylococcus aureus; conditions: 50 μg/mL, macrophages
Text: MRSA is able to invade a number of non-phagocytic cell types including osteoblasts and various epithelial and endothelial cell types (Garzoni and Kelly, (2008) Trends in Microbiology). MRSA is able to infect an osteoblast cell line (MG63), an airway epithelial cell line (A549) and primary cultures of human umbilical vein endothelial cells (HUVEC). […] The dashed line indicates the limit of detection for the assay.
as §1, with “MG63 (CRL-1427) and A549 (CCL185) cell lines were obtained from ATCC and maintained in RPMI 1640 tissue culture media supplemented with 10 mM Hepes and 10% Fetal Calf Serum (RPMI-10). HUVEC cells were obtained from Lonza and maintained in EGM Endothelial Cell Complete Media (Lonza, Walkersville, Md.).” left out

[7] = system: MRSA; assay: Intravenous infection model, established infection in CB17.SCID mice; type: in vivo; conditions: treated 1 day after infection; AAC 50 mg/Kg, antibiotic 0.5 mg/Kg; kidneys day 4
Description: Mice were treated with the AAC 30 minutes after infection. To better replicate conditions likely to occur in MRSA patients seeking treatment, it was determined whether the AAC is effective at clearing an established infection and that linking of the antibiotic to an anti-S. aureus antibody provides a definite advantage over treatment with antibiotic alone. To this end, the efficacy of AAC with an equivalent dose of the antibiotic dimethyl-pipBOR was compared.
One day after infection, the mice were treated with 50 mg/Kg of S4497 antibody, 50 mg/Kg of S4497 dimethyl-pipBOR AAC 105 or with 0.5 mg/Kg of dimethyl-pipBOR antibiotic 7, the equivalent dose of antibiotic that is contained in 50 mg/Kg of AAC). Mice were sacrificed 4 days after infection and the total number of surviving bacteria per mouse (2 kidneys pooled) was determined by plating.
7 week old female mice were used for all in vivo experiments and infections were carried out by intravenous injection into the tail vein. A/J mice (Jackson Lab) were infected with a dose of 2×10^6 CFU. Balb/c mice (Charles River Laboratories, Hollister, Calif.) were infected with a dose of 2×10^7 CFU. […] The total number of bacteria recovered per mouse (2 kidneys) was determined by plating serial dilutions of the tissue homogenate in PBS 0.05% Tween on Tryptic Soy Agar with 5% defibrinated sheep blood.

[8] = system: MRSA (NRS384 strain of USA300); assay: MIC determination for extracellular bacteria; type: cell-based; conditions: Staphylococcus aureus, read-out: Extracellular MRSA MIC
Description: Dilutions of the antibiotic were made in quadruplicate in 96 well culture dishes. MRSA (NRS384 strain of USA300) was taken from an exponentially growing culture and diluted to 1×10^4 CFU/mL. Bacteria was cultured in the presence of antibiotic for 18-24 hours with shaking at 37° C. and bacterial growth was determined by reading the Optical Density (OD) at […]. The MIC was determined to be the dose of antibiotic that inhibited bacterial growth by >90%.

Molecule	Macrophage assay activity [2]	further results
piperidyl benzoxazino rifamycin [pipBOR]		killing of intracellular MRSA as free antibiotics relative to rifampicin [1]: more potent than rifampicin
thio-S4497-v8-LC-V205C-(azithromycin) [AAC 121]	0	
thio-S4497-HC-A118C-MC-vc-PABC-(daptomycin) [AAC 104]	0	
thio-S4497-HC-A118C-MC-vc-PAB-(novobiocin) [AAC 102]	0	
thio-S4497-HC-A118C-MC-vc-PAB-(retapamulin) [AAC 103]	0	
CC(=O)NC[C@H]1CN(c2ccc(N3CCOCC3)c(F)c2)C(=O)O1 [Linezolid]		killing of intracellular MRSA sequestered inside macrophages [1]: failed to kill
thio-S4497-HC-A118C-MC-vc-PABC-(GSK-2140944) [AAC 105]	0	
thio-S4497-HC-A118C-MC-vc-PABC-(teicoplanin) [AAC 108]	weak	CFU/well after treatment [2]: about 500 CFU/well
thio-S4497 WT (V8), LC V205C-(thiostrepton) [AAC 128]	0	
thio-S4497-HC-A118C-MC-vc-PABC-(pipBOR) [S4497-pipBOR AAC 102]		efficacy at 50 mg/Kg (kidney bacterial load) ([3]; 50 mg/Kg IV 30 minutes post infection, kidneys 4 days post infection): cleared the infection in all of the mice tested; also recorded: effective; efficacy at lower doses ([3]; doses below 50 mg/Kg down to 2 m/Kg, 30 minutes after infection): only partially efficacious; clearance of infection (peritoneal wash and kidney) [4]: cleared the infection to below the limit of detection; inhibition of bacterial growth by AAC not pre-treated with cathepsin B [5]: did not result in inhibition of bacterial growth; intracellular killing of MRSA [6]: effectively killed
thio-S4497-v8-LC-cys-MC-vc-PAB-(nosiheptide) [AAC 149]	0	
thio-S4497-HC-A118C-MC-vc-PABC-(ampicillin) [AAC 113]	0	
thio-S4497-HC-A118C-MC-vc-PAB-(clindamycin) [AAC 101]	0	
CO[C@H]1/C=C/O[C@@]2(C)Oc3c(C)c(O)c4c(=O)c(c5oc6cc(N7CCC(N(C)C)CC7)cc(O)c6nc-5c4c3C2=O)NC(=O)/C(C)=C\C=C\[C@H](C)[C@H](O)[C@@H](C)[C@@H](O)[C@@H](C)[C@H](OC(C)=O)[C@@H]1C [dimethyl-pipBOR, dimethylpiperidyl benzoxazino rifamycin]		efficacy against established infection [7]: failed to clear the infection; killing of intracellular MRSA as free antibiotics relative to rifampicin [1]: more potent than rifampicin
thio-S4497-v8-LC-V205C-(thiostrepton) [AAC 141]	0	
thio-S4497-HC-A118C-MC-vc-PAB-(triclosan) [AAC 109]	0	
thio-S4497-v8-LC-V205C-MC-vc-PABC-(teicoplanin) [AAC 140]	0	
CCCCCCCCCC(=O)N[C@@H](Cc1c[nH]c2ccccc12)C(=O)N[C@H](CC(N)=O)C(=O)N[C@@H](CC(=O)O)C(=O)N[C@@H]1C(=O)NCC(=O)N[C@@H](CCCN)C(=O)N[C@@H](CC(=O)O)C(=O)N[C@H](C)C(=O)N[C@@H](CC(=O)O)C(=O)NCC(=O)N[C@H](CO)C(=O)N[C@@H]([C@H](C)CC(=O)O)C(=O)N[C@@H](CC(=O)c2ccccc2N)C(=O)O[C@@H]1C [Daptomycin]		MIC [8]: 4 µg/mL (≈ 2.47 µM); MIC ([1]; Staphylococcus aureus, 24 h, MRSA inside mouse peritoneal macrophages, […]): > 100 µg/mL; killing of intracellular MRSA sequestered inside macrophages [1]: failed to kill
thio-S4497-HC-A118C-MC-vc-PABC-(sitafloxacin) [AAC 107]	weak	CFU/well after treatment [2]: about 5,000 CFU/well
